Assay results as given in patent US9169254B2, “Spiroimidazolone derivative” (Chugai Seiyaku Kabushiki Kaisha, priority 2009, dated 2015).

Biological target: T1, human PTH1 receptor (Homo sapiens, UniProt Q03431)
T1 sequence (Q03431 27-593): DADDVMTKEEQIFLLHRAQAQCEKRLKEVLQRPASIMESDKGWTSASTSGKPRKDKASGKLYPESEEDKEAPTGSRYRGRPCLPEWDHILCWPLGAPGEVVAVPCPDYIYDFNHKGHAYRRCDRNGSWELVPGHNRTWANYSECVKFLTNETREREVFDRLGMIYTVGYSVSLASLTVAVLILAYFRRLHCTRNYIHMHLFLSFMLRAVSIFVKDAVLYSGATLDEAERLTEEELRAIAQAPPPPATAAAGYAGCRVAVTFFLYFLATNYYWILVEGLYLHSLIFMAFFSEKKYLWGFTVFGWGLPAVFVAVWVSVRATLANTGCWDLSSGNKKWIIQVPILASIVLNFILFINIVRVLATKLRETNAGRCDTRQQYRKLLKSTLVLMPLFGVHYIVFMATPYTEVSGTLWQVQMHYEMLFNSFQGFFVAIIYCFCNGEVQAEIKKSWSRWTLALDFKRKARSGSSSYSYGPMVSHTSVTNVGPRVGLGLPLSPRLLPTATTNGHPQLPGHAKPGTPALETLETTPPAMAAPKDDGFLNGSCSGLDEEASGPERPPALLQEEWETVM
Assay: In vitro cAMP signal activity in HKRK-B7 cells (LLC-PK1 cells overexpressing the human PTH1 receptor)
Assay type: cell-based

[1] = HKRK-B7 cells, compound at 1×10^−3 M, cAMP produced as percentage of that produced by hPTH(1-34) at 100 nM

Compound | cAMP production activity (%) [1] | cAMP production activity (%) (0.1 µM)
CN(C)C(=O)c1ccc(CCS(=O)(=O)N2CCC3(CC2)N=C(c2cccc(OC(F)(F)F)c2)NC3=O)c(F)c1 [Compound 293, 3-fluoro-N,N-dimethyl-4-{2-[4-oxo-2-(3-trifluoromethoxy-phenyl)-1,3,8-triaza-spiro[4.5]dec-1-ene-8-sulfonyl]-ethyl}-benzamide] | 38% | 
COCCCCCCCC1=NC2(CCN([S@TB18](=O)(=O)/C=C/c3c(C)cc(N(C)C(N)=O)cc3C)CC2)C(=O)N1 [Compound 1123, 1-(4-{(E)-2-[2-(7-methoxy-heptyl)-4-oxo-1,3,8-triaza-spiro[4.5]dec-1-ene-8-sulfonyl]-vinyl}-3,5-dimethyl-phenyl)-1-methyl-urea] | 122% | 
CC(=O)N(C)Cc1cc(C)c(CCS(=O)(=O)N2CCC3(CC2)N=C(C2CCC(CCC(F)(F)F)CC2)NC3=O)c(C)c1 (stereo not drawn) [Compound 784, N-[3,5-dimethyl-4-(2-{4-oxo-2-[4-(3,3,3-trifluoro-propyl)-cyclohexyl]-1,3,8-triaza-spiro[4.5]dec-1-ene-8-sulfonyl}-ethyl)-benzyl]-N-methyl-acetamide] | 84% | 
Cc1cc(C(=O)N(C)C)ccc1CCS(=O)(=O)N1CCC2(CC1)N=C(NCC1CCCCC1)NC2=O [Compound 1399, 4-{2-[2-(cyclohexylmethyl-amino)-4-oxo-1,3,8-triaza-spiro[4.5]dec-1-ene-8-sulfonyl]-ethyl}-3,N,N-trimethyl-benzamide] | 20% | 
Cc1cc2ccc1CCS(=O)(=O)N1CCC3(CC1)N=C(NC3=O)c1cc(cc(C(F)(F)F)c1)OCC(F)(F)C(F)(F)C(F)(F)COCCN(C)C2=O [Compound 1441] |  | 5.0%
O=C1NC(C2CCCCC2)=NC12CCN(S(=O)(=O)CC/C=C/c1cccc3[nH]ccc13)CC2 [Compound 251, 2-Cyclohexyl-8-[(E)-4-(1H-indol-4-yl)-but-3-ene-1-sulfonyl]-1,3,8-triaza-spiro[4.5]dec-1-en-4-one] | 28% | 
Cc1cc(C(=O)N(C)C)ccc1CCS(=O)(=O)N1CCC2(CC1)N=C(c1cc(C(F)(F)F)cc(C(F)(F)F)c1)NC2=O [Compound 82, 4-{2-[2-(3,5-bis-trifluoromethyl-phenyl)-4-oxo-1,3,8-triaza-spiro[4.5]dec-1-ene-8-sulfonyl]-ethyl}-3,N,N-trimethyl-benzamide] | 65% | 
CCOCc1cc(NC(C)=O)ccc1CCS(=O)(=O)N1CCC2(CC1)N=C(C1CCC(C)CC1)NC2=O (stereo not drawn) [Compound 753, N-(3-ethoxymethyl-4-{2-[2-(4-methyl-cyclohexyl)-4-oxo-1,3,8-triaza-spiro[4.5]dec-1-ene-8-sulfonyl]-ethyl}-phenyl)-acetamide] | 104% | 
Cc1cc(N2C(=O)CNC2=O)cc(C)c1/C=C/S(=O)(=O)N1CCC2(CC1)N=C(c1cccc(OC(F)(F)F)c1)NC2=O [Compound 635, 3-(3,5-Dimethyl-4-{(E)-2-[4-oxo-2-(3-trifluoromethoxy-phenyl)-1,3,8-triaza-spiro[4.5]dec-1-ene-8-sulfonyl]-vinyl}-phenyl)-imidazolidine-2,4-dione] | 93% | 
Cc1cc(C(=O)N(C)C)ccc1CCS(=O)(=O)N1CCC2(CC1)N=C(/C=C/c1ccccc1)NC2=O [Compound 142, 3,N,N-trimethyl-4-{2-[4-oxo-2-((E)-styryl)-1,3,8-triaza-spiro[4.5]dec-1-ene-8-sulfonyl]-ethyl}-benzamide] | 63% | 
COc1ccc(C2=NC3(CCN(S(=O)(=O)CCc4ccc(C(=O)N(C)C)cc4C)CC3)C(=O)N2)cc1C(F)(F)F [Compound 144, 4-{2-[2-(4-methoxy-3-trifluoromethyl-phenyl)-4-oxo-1,3,8-triaza-spiro[4.5]dec-1-ene-8-sulfonyl]-ethyl}-3,N,N-trimethyl-benzamide] | 59% | 
CCCCC#CCCCC1=NC2(CCN(S(=O)(=O)CCc3c(C)cc(N(C)C(N)=O)cc3C)CC2)C(=O)N1 [Compound 1081, 1-{3,5-Dimethyl-4-[2-(2-non-4-ynyl-4-oxo-1,3,8-triaza-spiro[4.5]dec-1-ene-8-sulfonyl)-ethyl]-phenyl}-1-methyl-urea] | 53% | 
Cc1cc(C(=O)N2CCC3(CC2)COC3)cc(C)c1/C=C/S(=O)(=O)N1CCC2(CC1)N=C(c1ccc(F)c(C(F)(F)F)c1)NC2=O [Compound 644, 8-{(E)-2-[2,6-dimethyl-4-(2-oxa-7-aza-spiro[3.5]nonane-7-carbonyl)-phenyl]-ethenesulfonyl}-2-(4-fluoro-3-trifluoromethyl-phenyl)-1,3,8-triaza-spiro[4.5]dec-1-en-4-one] | 75% | 
CC(=O)Nc1ccc(CCS(=O)(=O)N2CCC3(CC2)N=C(C2CCC(C(C)(C)C)CC2)NC3=O)c(C)c1 (stereo not drawn) [Compound 909, N-(4-{2-[2-(4-tert-butyl-cyclohexyl)-4-oxo-1,3,8-triaza-spiro[4.5]dec-1-ene-8-sulfonyl]-ethyl}-3-methyl-phenyl)-acetamide] | 78% | 
Cc1cc(N2C(=O)C(C)(C)C[C@@H]2CO)cc(C)c1/C=C/S(=O)(=O)N1CCC2(CC1)N=C(c1cccc(OC(F)(F)F)c1)NC2=O [Compound 712, 8-{(E)-2-[4-((R)-5-hydroxymethyl-3,3-dimethyl-2-oxo-pyrrolidin-1-yl)-2,6-dimethyl-phenyl]-ethenesulfonyl}-2-(3-trifluoromethoxy-phenyl)-1,3,8-triaza-spiro[4.5]dec-1-en-4-one] | 16% | 
CC(=O)Nc1ccc(CCS(=O)(=O)N2CCC3(CC2)N=C([C@H]2CC[C@H](OCCCF)CC2)NC3=O)c(C)c1 [Compound 915, N-[4-(2-{2-[4-(3-fluoro-propoxy)-cyclohexyl]-4-oxo-1,3,8-triaza-spiro[4.5]dec-1-ene-8-sulfonyl}-ethyl)-3-methyl-phenyl]-acetamide] | 61% | 
Cc1cc(C(=O)N2C[C@H](NC(C)C)[C@@H](O)C2)cc(C)c1/C=C/S(=O)(=O)N1CCC2(CC1)N=C(c1cccc(OC(F)(F)F)c1)NC2=O [Compound 406, 8-{(E)-2-[4-((3S,4S)-3-hydroxy-4-isopropylamino-pyrrolidine-1-carbonyl)-2,6-dimethyl-phenyl]-ethenesulfonyl}-2-(3-trifluoromethoxy-phenyl)-1,3,8-triaza-spiro[4.5]dec-1-en-4-one] | 100% | 
Cc1cc(C(=O)N(C)C)ccc1CCS(=O)(=O)N1CCC2(CC1)N=C(C1CCC(C(F)(F)F)CC1)NC2=O (stereo not drawn) [Compound 104, 3,N,N-trimethyl-4-{2-[4-oxo-2-(4-trifluoromethyl-cyclohexyl)-1,3,8-triaza-spiro[4.5]dec-1-ene-8-sulfonyl]-ethyl}-benzamide] | 79% | 
CC(=O)N(C)c1ccc(/C=C/CS(=O)(=O)N2CCC3(CC2)N=C(C2CCC(C)CC2)NC3=O)c(C)c1 (stereo not drawn) [Compound 744, N-Methyl-N-(3-methyl-4-{(E)-3-[2-(4-methyl-cyclohexyl)-4-oxo-1,3,8-triaza-spiro[4.5]dec-1-ene-8-sulfonyl]-propenyl}-phenyl)-acetamide] | 19% | 
Cc1cc(N(C)C(N)=O)cc(C)c1CCS(=O)(=O)N1CCC2(CC1)N=C(CCCCCCc1ccccc1)NC2=O [Compound 1349, 1-(3,5-dimethyl-4-{2-[4-oxo-2-(6-phenyl-hexyl)-1,3,8-triaza-spiro[4.5]dec-1-ene-8-sulfonyl]-ethyl}-phenyl)-1-methyl-urea] | 98% | 
Cc1cc(S(=O)(=O)NCc2cccnc2)ccc1CCS(=O)(=O)N1CCC2(CC1)N=C(c1cccc(C(F)(F)F)c1)NC2=O [Compound 852, 3-methyl-4-{2-[4-oxo-2-(3-trifluoromethyl-phenyl)-1,3,8-triaza-spiro[4.5]dec-1-ene-8-sulfonyl]-ethyl}-N-pyridin-3-ylmethyl-benzenesulfonamide] | 58% | 
O=C1NC(C2CCCCC2)=NC12CCN(S(=O)(=O)/C=C/C1CCCC1)CC2 [Compound 344, 2-cyclohexyl-8-((E)-2-cyclopentyl-ethenesulfonyl)-1,3,8-triaza-spiro[4.5]dec-1-en-4-one] | 35% | 
Cc1cc(N2CCOCC2=O)cc(C)c1/C=C/S(=O)(=O)N1CCC2(CC1)N=C(C1CCC(C)CC1)NC2=O (stereo not drawn) [Compound 515, 8-{(E)-2-[2,6-dimethyl-4-(3-oxo-morpholin-4-yl)-phenyl]-ethenesulfonyl}-2-(4-methyl-cyclohexyl)-1,3,8-triaza-spiro[4.5]dec-1-en-4-one] | 113% | 
Cc1cc(C(=O)N2CCC(C)(O)CC2)cc(C)c1/C=C/S(=O)(=O)N1CCC2(CC1)N=C(c1ccc3c(c1)OC(F)(F)C(F)(F)O3)NC2=O [Compound 1212, 8-{(E)-2-[4-(4-hydroxy-4-methyl-piperidine-1-carbonyl)-2,6-dimethyl-phenyl]-ethenesulfonyl}-2-(2,2,3,3-tetrafluoro-2,3-dihydro-benzo[1,4]dioxin-6-yl)-1,3,8-triaza-spiro[4.5]dec-1-en-4-one] | 96% | 
